Test results as given in patent publication US11058680B2, “Combinations of opioid/TLR4 antagonists and acetaminophen for use in the treatment of emotional pain and insomnia” (Allodynic Threapeutics, LLC, priority 2016, dated 2021).
Several values for one entry are separate records, joined by “and”; a condition that tells them apart may be missing. Equal values may be shown once.

Tested on: migraine attacks
Assay: Naltrexone/acetaminophen open-label pilot study, acute treatment of migraine: headache pain (4-point scale; relief score ≤1, pain-free score = 0), associated symptoms, additional meds
Format: in vivo, human
Experimental: Sixteen unique patients were enrolled in an open phase pilot study for the acute treatment of migraine attacks, insomnia, and emotional pain. Of the sixteen patients, eleven were evaluated for one migraine attack, one for two attacks, two for four attacks, one for six attacks, and one for fourteen attacks. A total of forty-one […] treatments were evaluated. Patients received a single dose of one of the following treatment options:
The majority of the patients remained in the clinic for observation for 2 hours after dosing. They completed headache diary assessments immediately before and after dosing at time points: 7, 15, and 30 minutes; and 1, 1.5, 2, 3, 6, 12, 24, and 48 hours. Headache pain was assessed on a 4-point scale (0=none; 1=mild; 2=moderate; 3=severe). The assessment of photophobia, phonophobia, nausea, and neck/shoulder pain was assessed as present or absent. The assessment of emotional pain was recorded on a 4-point scale (0=none, 1=mild, 2=moderate, 3=severe). The assessment of difficulty sleeping or falling asleep (insomnia) was assessed on a 4-point scale (0=none, 1=mild, 2=moderate, 3=severe) at baseline, for the night before treatment and for the following nights at 24, and 48 hours. Patients recorded side effects severity at each time point. Patients recorded the time of the first rescue medication dose and all additional headache medications used within 48 hours. Patients were required to stay awake to record their assessments in the first 2 hours, sleeping was permitted thereafter. While asleep, assessments were completed according to patients' best estimation. For data analysis, it was assumed that a migraine attack is a unique patient. Patients were asked to specify (yes or no answer) to whether they experienced emotional pain symptoms such as: hurt feelings, sadness, fear, or anger. Patients who replied positively to having emotional pain were asked to specify the cause into one of the following options: relationship, work/school, money/debt, health, or loss/grief.

[1] = 12 h, NTX/APAP 2.25 mg/325 mg, NTX 2.25 mg
[2] = 12 h, NTX/APAP 3.25 mg/325 mg, NTX 3.25 mg
[3] = 12 h, NTX/APAP 5 mg/325 mg, NTX 5 mg
[4] = 12 h, NTX/APAP […]325 mg, NTX 1.5 mg
[5] = 12 h, naltrexone/acetaminophen 2.25 mg/325 mg (N=21), naltrexone 2.25 mg (N=9)
[6] = 24 h, NTX/APAP 2.25 mg/325 mg, NTX 2.25 mg
[7] = 24 h, NTX/APAP 3.25 mg/325 mg, NTX 3.25 mg
[8] = 24 h, NTX/APAP 5 mg/325 mg, NTX 5 mg
[9] = 24 h, NTX/APAP […]325 mg, NTX 1.5 mg
[10] = 24 h, naltrexone/acetaminophen 2.25 mg/325 mg (N=21), naltrexone 2.25 mg (N=9)
[11] = 48 h, NTX/APAP 2.25 mg/325 mg, NTX 2.25 mg
[12] = 48 h, NTX/APAP 3.25 mg/325 mg, NTX 3.25 mg
[13] = 48 h, NTX/APAP 5 mg/325 mg, NTX 5 mg
[14] = 48 h, NTX/APAP […]325 mg, NTX 1.5 mg
[15] = 48 h, naltrexone/acetaminophen 2.25 mg/325 mg (N=21), naltrexone 2.25 mg (N=9)

O=C1CC[C@@]2(O)[C@H]3Cc4ccc(O)c5c4[C@@]2(CCN3CC2CC2)[C@H]1O5 [naltrexone]
Nausea-free [1]: 9 (100) n (%) | Neck/shoulder pain-free [1]: 9 (100) n (%) | Phonophobia-free [1]: 9 (100) n (%) | Photophobia-free [1]: 8 (88) n (%) | Additional meds taken [2]: 0 | Headache pain-free [2]: 3 (100) n (%) | Headache pain-relief [2]: 3 (100) n (%) | Most bothersome symptom-free [2]: 3 (100) n (%) | Nausea-free [2]: 3 (100) n (%) | Neck/shoulder pain-free [2]: 3 (100) n (%) | Phonophobia-free [2]: 3 (100) n (%) | Photophobia-free [2]: 3 (100) n (%) | Additional meds taken [3]: 0 | Headache pain-free [3]: 1 (100) n (%) | Headache pain-relief [3]: 1 (100) n (%) | Most bothersome symptom-free [3]: 1 (100) n (%) | Nausea-free [3]: 1 (100) n (%) | Neck/shoulder pain-free [3]: 1 (100) n (%) | Phonophobia-free [3]: 1 (100) n (%) | Photophobia-free [3]: 1 (100) n (%) | Additional meds taken [4]: 0 | Headache pain-free [4]: 3 (100) n (%) | Headache pain-relief [4]: 3 (100) n (%) | Most bothersome symptom-free [4]: 3 (100) n (%) | Nausea-free [4]: 3 (100) n (%) | Neck/shoulder pain-free [4]: 3 (100) n (%) | Phonophobia-free [4]: 3 (100) n (%) | Photophobia-free [4]: 3 (100) n (%) | Additional meds taken (12 h, combined doses): 0 | Headache pain-free (12 h, combined doses): 14 (88) n (%) | Headache pain-relief (12 h, combined doses): 16 (100) n (%) | Most bothersome symptom-free (12 h, combined doses): 16 (100) n (%) | Nausea-free (12 h, combined doses): 16 (100) n (%) | Neck/shoulder pain-free (12 h, combined doses): 16 (100) n (%) | Phonophobia-free (12 h, combined doses): 16 (100) n (%) | Photophobia-free (12 h, combined doses): 15 (94) n (%) | Headache pain-free (12 h, naltrexone 1.5 mg (N=3)): 100% | Headache pain-free [5]: 77% and 100% | Headache pain-relief [5]: 100% | Most bothersome symptom-free [5]: 100% | Headache pain-free (12 h, naltrexone/acetaminophen 3.25 mg/325 mg (N=3), naltrexone 3.25 mg (N=3)): 100% | Additional meds taken [6]: 0 | Headache pain-free [6]: 8 (88) n (%) | Headache pain-relief [6]: 9 (100) n (%) | Most bothersome symptom-free [6]: 9 (100) n (%) | Nausea-free [6]: 9 (100) n (%) | Neck/shoulder pain-free [6]: 9 (100) n (%) | Phonophobia-free [6]: 9 (100) n (%) | Photophobia-free [6]: 9 (100) n (%) | Additional meds taken [7]: 0 | Headache pain-free [7]: 3 (100) n (%) | Headache pain-relief [7]: 3 (100) n (%) | Most bothersome symptom-free [7]: 3 (100) n (%) | Nausea-free [7]: 3 (100) n (%) | Neck/shoulder pain-free [7]: 3 (100) n (%) | Phonophobia-free [7]: 3 (100) n (%) | Photophobia-free [7]: 3 (100) n (%) | Additional meds taken [8]: 0 | Headache pain-free [8]: 1 (100) n (%) | Headache pain-relief [8]: 1 (100) n (%) | Most bothersome symptom-free [8]: 1 (100) n (%) | Nausea-free [8]: 1 (100) n (%) | Neck/shoulder pain-free [8]: 1 (100) n (%) | Phonophobia-free [8]: 1 (100) n (%) | Photophobia-free [8]: 1 (100) n (%) | Additional meds taken [9]: 0 | Headache pain-free [9]: 3 (100) n (%) | Headache pain-relief [9]: 3 (100) n (%) | Most bothersome symptom-free [9]: 3 (100) n (%) | Nausea-free [9]: 3 (100) n (%) | Neck/shoulder pain-free [9]: 3 (100) n (%) | Phonophobia-free [9]: 3 (100) n (%) | Photophobia-free [9]: 3 (100) n (%) | Additional meds taken (24 h, combined doses): 0 | Headache pain-free (24 h, combined doses): 15 (94) n (%) | Headache pain-relief (24 h, combined doses): 16 (100) n (%) | Most bothersome symptom-free (24 h, combined doses): 16 (100) n (%) | Nausea-free (24 h, combined doses): 16 (100) n (%) | Neck/shoulder pain-free (24 h, combined doses): 16 (100) n (%) | Phonophobia-free (24 h, combined doses): 16 (100) n (%) | Photophobia-free (24 h, combined doses): 16 (100) n (%) | Headache pain-free (24 h, naltrexone 1.5 mg (N=3)): 100% | Headache pain-free [10]: 88% and 100% | Headache pain-relief [10]: 100% | Most bothersome symptom-free [10]: 100% | Headache pain-free (24 h, naltrexone/acetaminophen 3.25 mg/325 mg (N=3), naltrexone 3.25 mg (N=3)): 100% | Additional meds taken [11]: 0 (0) | Headache pain-free [11]: 9 (100) n (%) | Headache pain-relief [11]: 9 (100) n (%) | Most bothersome symptom-free [11]: 9 (100) n (%) | Nausea-free [11]: 9 (100) n (%) | Neck/shoulder pain-free [11]: 9 (100) n (%) | Phonophobia-free [11]: 9 (100) n (%) | Photophobia-free [11]: 9 (100) n (%) | Additional meds taken [12]: 0 | Headache pain-free [12]: 3 (100) n (%) | Headache pain-relief [12]: 3 (100) n (%) | Most bothersome symptom-free [12]: 3 (100) n (%) | Nausea-free [12]: 3 (100) n (%) | Neck/shoulder pain-free [12]: 3 (100) n (%) | Phonophobia-free [12]: 3 (100) n (%) | Photophobia-free [12]: 3 (100) n (%) | Additional meds taken [13]: 1 | Headache pain-free [13]: 1 (100) n (%) | Headache pain-relief [13]: 1 (100) n (%) | Most bothersome symptom-free [13]: 1 (100) n (%) | Nausea-free [13]: 1 (100) n (%) | Neck/shoulder pain-free [13]: 1 (100) n (%) | Phonophobia-free [13]: 1 (100) n (%) | Photophobia-free [13]: 1 (100) n (%) | Additional meds taken [14]: 0 | Headache pain-free [14]: 2 (66) n (%) | Headache pain-relief [14]: 2 (66) n (%) | Most bothersome symptom-free [14]: 2 (66) n (%) | Nausea-free [14]: 2 (66) n (%) | Neck/shoulder pain-free [14]: 3 (100) n (%) | Phonophobia-free [14]: 3 (100) n (%) | Photophobia-free [14]: 2 (66) n (%) | Additional meds taken (48 h, combined doses): 1 | Headache pain-free (48 h, combined doses): 15 (94) n (%) | Headache pain-relief (48 h, combined doses): 15 (94) n (%) | Most bothersome symptom-free (48 h, combined doses): 15 (94) n (%) | Nausea-free (48 h, combined doses): 15 (94) n (%) | Neck/shoulder pain-free (48 h, combined doses): 16 (100) n (%) | Phonophobia-free (48 h, combined doses): 16 (100) n (%) | Photophobia-free (48 h, combined doses): 15 (94) n (%) | Headache pain-free (48 h, naltrexone 1.5 mg (N=3)): 100% | Headache pain-free [15]: 100% | Headache pain-relief [15]: 100% | Most bothersome symptom-free [15]: 100% | Headache pain-free (48 h, naltrexone/acetaminophen 3.25 mg/325 mg (N=3), naltrexone 3.25 mg (N=3)): 100% | Headache pain-free (from 90 minutes to 48 hours, naltrexone alone, all dosages (1.5, 2.25, 3.25, 5 mg)): 100%
